Test results as given in patent US10849926B2, “GM3-promoted inflammation inhibitor and inflammatory cytokine production inhibitor” (THE NOGUCHI INSTITUTE, priority 2015, dated 2020).

What was measured:
RAW 264.7 cells [1] = assay: LPS-dependent TNF-α production in RAW 264.7 cells (ELISA); type: cell-based, mouse; conditions: for TNF-α production by LPS on addition of 1 μM or less of ganglioside: LPS 2.0 ng/mL (FIG. 4); for TNF-α production by LPS: LPS 0.5 ng/mL + each glycosphingolipid 1.0 μM, 0.5% fetal bovine serum, 18 hours (FIG. 3); for inflammation promoted by LPS (LPS-dependent TNF-α production): LPS 2.0 ng/mL + glycosphingolipid 0.25 to 2.0 μM, 18 hours (FIG. 4)
Procedure: A serum ganglioside mimic resembling the composition of these gangliosides was used to treat a macrophage-like cultured cell line in which the serum in the medium was removed and reduced: RAW 264.7 cells (0.5% fetal bovine-derived serum). Then, an actual influence on TNF-α production by TLR4 ligand (LPS) stimulation was examined.
RAW 264.7 cells cultured overnight in DMEM containing 0.5% fetal bovine serum were co-stimulated by 0.5 ng/mL of lipopolysaccharide (LPS) and ganglioside (serum ganglioside mimic) at a concentration resembling the composition of serum ganglioside. 18 hours later, the TNF-α in the culture supernatant was quantitated by an ELISA method.
RAW 264.7 cells cultured overnight in DMEM containing 0.5% fetal bovine serum were co-stimulated by LPS (0.5 ng/mL) and each glycosphingolipid (1.0 μM). 18 hours later, the TNF-α in the culture supernatant was quantitated by the ELISA method.
RAW 264.7 cells cultured overnight in DMEM containing 0.5% fetal bovine serum were co-stimulated by LPS (2.0 ng/mL) and each glycosphingolipid (0.25 to 2.0 μM). 18 hours later, the TNF-α in the culture supernatant was quantitated by the ELISA method.

RAW 264.7 cells [2] = assay: Cooperative TNF-α production by LPS and GM3 in RAW 264.7 cells (ELISA); type: cell-based, mouse; conditions: LPS 0.5 ng/mL; for TNF-α production by LPS and GM3 on addition of 1 μM or less of ganglioside: 1 μM (GM3 ratio; 10:1) or less, GM3 5.0 μM (FIG. 5); for synergistic increases in productions of TNF-α by GM3 and LPS: glycosphingolipid 0.25 to 1.0 μM
Procedure: RAW 264.7 cells cultured overnight in DMEM containing 0.5% fetal bovine serum were co-stimulated by each glycosphingolipid (0.25 to 1.0 μM), LPS (0.5 ng/mL), and GM3 (5.0 μM). 18 hours later, the TNF-α in the culture supernatant was quantitated by the ELISA method.

[3] = tested on: bone marrow-derived macrophages (BMDMs); assay: LPS-dependent TNF-α production in bone marrow-derived macrophages (ELISA); type: cell-based, mouse; conditions: LPS 0.5 ng/mL + glycosphingolipid 10 μM, 18 hours (FIG. 6)
Procedure: (§1) Bone marrow-derived cells harvested from the femur and tibia of C57/BL6 mice were induced to differentiate for one week using 20 ng/mL of recombinant macrophage colony-stimulating factor (M-CSF). The obtained bone marrow-derived macrophages (BMDMs) were cultured overnight in DMEM containing 0.5% fetal bovine serum and co-stimulated with LPS (0.5 ng/mL) and each glycosphingolipid (10 μM). 18 hours later, the TNF-α in the culture supernatant was quantitated by the ELISA method.

[4] = tested on: bone marrow-derived macrophages (BMDMs); assay: Cooperative TNF-α production by LPS and GM3 in bone marrow-derived macrophages (ELISA); type: cell-based, mouse; conditions: LPS 0.5 ng/mL, GM3 10 μM, glycosphingolipid 10 μM, 18 hours (FIG. 7)
Procedure: as §1, with “ng/mL), GM3 (10 μM),” for “ng/mL)”, “μM). After” for “μM).”, “hours,” for “hours later,”, “quantified” for “quantitated”

[5] = tested on: Human peripheral blood-derived monocytes (CD14 positive cells); assay: LPS-dependent inflammatory cytokine production in human peripheral blood-derived monocytes (ELISA); type: cell-based; conditions: LPS 0.125 ng/mL + 1.25, 2.5, or 5.0 μM ganglioside; for production of IL-6 by LPS: 18 hours (FIG. 8); for production of IL-1β by LPS: 18 hours (FIG. 9); for production of TNF-α by LPS: 18 hours (FIG. 10)
Procedure: (§2) Human peripheral blood-derived monocytes (CD14 positive cells) were cultured in DMEM (Low Glucose) containing 0.5% FCS and 25 ng/mL of granulocyte/macrophage colony stimulating factor, and co-stimulated with 0.125 ng/mL of E. coli-derived lipopolysaccharide (LPS, E. coli O111:B4), and 1.25, 2.5, or 5.0 μM of N-mix (neutral glycosphingolipid mixture (Glc-Cer, Lac-Cer, Gb3, and Gb4)) or each of the ganglioside molecular species. 18 hours later, the inflammatory cytokines (IL-6, IL-1β, and TNF-α) secreted in the culture supernatant were quantitated using the ELISA method.

human monocytes = assay: IL-6 production in human monocytes by LPS with or without GM3C22 or GM3C24 (ELISA); type: cell-based; conditions: for production of IL-6 in response to stimulation promoted by the addition of GM3C22 and GM3C24: LPS 0.06 ng/mL + GM3C22 or GM3C24, 18 hours (FIG. 11); for production of IL-6 in response to LPS stimulation: LPS 0.06 ng/mL only, 18 hours (FIG. 11)
Procedure: as §2
Under the same culture conditions as in Example 5, “GM3C16”, “GM3C18” or “GM3C24:1” which inhibited inflammation was combined to “GM3C22” or “GM3C24” which promoted inflammation. The resultant combination was added to the monocytes and further stimulated with 0.06 ng/mL of LPS (i.e., a TLR4 activating factor). 18 hours later, the inflammatory cytokine IL-6 secreted in the culture supernatant was quantitated using the ELISA method.

TLR4 = assay: IL-6 production in human monocytes stimulated with LPS (TLR4 activating factor); type: cell-based; conditions: LPS 0.125 ng/mL, 5 μM GM3 molecular species, 18 hours (FIG. 12)
Procedure: as §2
(§3) Then, under the same culture conditions as in Example 5, human monocytes were stimulated using any of 0.125 ng/mL of LPS (i.e., TLR4 activating factor), 5.0 μg/mL of high mobility group box 1 (HMGB 1) (i.e., a TLR4 and TLR2 activating factors), 20 ng/mL of Pam3Csk4 (i.e., a TLR1 and TLR2 activating factors), 1.0 ng/mL of MALP-2 (i.e., TLR2 and TLR6 activating factors), 50 ng/mL of Flagellin (i.e., a TLR5 activating factor), and 250 ng/mL of R-848 (i.e., TLR7 and TLR8 activating factors); and 5 μM of GM3 molecular species. 18 hours later, the inflammatory cytokine IL-6 secreted in the culture supernatant was quantitated using the ELISA method.

TLR4 and TLR2 = assay: IL-6 production in human monocytes stimulated with HMGB1 (TLR4 and TLR2 activating factor); type: cell-based; conditions: HMGB 1 5.0 μg/mL, 5 μM GM3 molecular species, 18 hours (FIG. 12)
Procedure: as §2, §3

TLR1 and TLR2 = assay: IL-6 production in human monocytes stimulated with Pam3Csk4 (TLR1 and TLR2 activating factor); type: cell-based; conditions: Pam3Csk4 20 ng/mL, 5 μM GM3 molecular species, 18 hours (FIG. 12)
Procedure: as §2, §3

[6] = tested on: Toll-like receptor (TLR) on human monocytes; assay: IL-6 production in human monocytes stimulated with other TLR activating factors (Pam3Csk4, MALP-2, Flagellin, R-848); type: cell-based; conditions: 5 μM GM3 molecular species, 18 hours (FIG. 12)
Procedure: as §2, §3

Row | Compound | TNF-α production by LPS on addition of 1 μM or less of ganglioside (RAW 264.7 cells [1]) | TNF-α production by LPS (RAW 264.7 cells [1]) | inflammation promoted by LPS (LPS-dependent TNF-α production) (RAW 264.7 cells [1]) | TNF-α production by LPS and GM3 on addition of 1 μM or less of ganglioside (RAW 264.7 cells [2]) | synergistic increases in productions of TNF-α by GM3 and LPS (RAW 264.7 cells [2]; GM3 5.0 μM, 18 hours (FIG. 5)) | LPS-dependent TNF-α production in bone marrow-derived macrophages [3] | cooperative TNF-α production by LPS and GM3 in bone marrow-derived macrophages [4] | IC50 (RAW 264.7 cells [2]; TNF-α production, GM3 5.0 μM, 18 hours (FIG. 5), read-out: 50% inhibitory concentration for cooperative activation of LPS and GM3) [nM] | production of IL-6 by LPS [5] | production of IL-1β by LPS [5] | production of TNF-α by LPS [5] | production of IL-6 in response to stimulation promoted by the addition of GM3C22 and GM3C24 (human monocytes) | production of IL-6 in response to LPS stimulation (human monocytes) | IL-6 production by LPS (TLR4) | IL-6 production by HMGB1 (TLR4 and TLR2) | IL-6 production by Pam3Csk4 (TLR1 and TLR2) | IL-6 production in other TLR activating factors [6]
1 | GD1b | almost completely inhibited | significantly strongly inhibited | inhibited in a concentration-dependent manner | almost completely inhibited | inhibited in a concentration-dependent manner | inhibited | strongly inhibited |  |  |  |  |  |  |  |  |  | 
2 | GT1b | almost completely inhibited | significantly strongly inhibited | inhibited in a concentration-dependent manner | almost completely inhibited | inhibited in a concentration-dependent manner | inhibited | strongly inhibited | 250 |  |  |  |  |  |  |  |  | 
3 | CCCCCCCCCCCCCC=CC(O)C(COC1OC(CO)C(OC2OC(CO)C(O)C(OC3(C(=O)O)CC(O)C(NC(C)=O)C(C(O)C(O)CO)O3)C2O)C(O)C1O)NC(=O)CCCCCCCCCCCCCCC (centres unmarked) [GM3C16] |  |  |  |  |  |  |  |  | inhibiting | inhibiting | inhibiting | strongly inhibited | strongly inhibited | inhibitory action | inhibitory action | inhibitory action was also observed | 
4 | CCCCCCCCC=CCCCCCCCCCCCCCC(=O)NC(COC1OC(CO)C(OC2OC(CO)C(O)C(OC3(C(=O)O)CC(O)C(NC(C)=O)C(C(O)C(O)CO)O3)C2O)C(O)C1O)C(O)C=CCCCCCCCCCCCCC (centres unmarked) [GM3C24:1] |  |  |  |  |  |  |  |  | inhibiting | inhibiting | inhibiting | strongly inhibited | strongly inhibited | inhibitory action | inhibitory action | inhibitory action was also observed | 
5 | CCCCCCCCCCCCCC=CC(O)C(COC1OC(CO)C(OC2OC(CO)C(O)C(OC3(C(=O)O)CC(O)C(NC(C)=O)C(C(O)C(O)CO)O3)C2O)C(O)C1O)NC(=O)C(O)CCCCCCCCCCCCCCCCCCCCCC (centres unmarked) [GM3hC24, reference compound] |  |  |  |  |  |  |  |  | significantly enhanced | significantly enhanced | significantly enhanced |  |  | selectively increased | selectively increased |  | no increase
6 | GD1a | almost completely inhibited | strongly inhibited | inhibited in a concentration-dependent manner | almost completely inhibited | inhibited in a concentration-dependent manner | inhibited | strongly inhibited |  |  |  |  |  |  |  |  |  | 
7 | CCCCCCCCCCCCCC=CC(O)C(COC1OC(CO)C(OC2OC(CO)C(O)C(OC3(C(=O)O)CC(O)C(NC(C)=O)C(C(O)C(O)CO)O3)C2O)C(O)C1O)NC(=O)CCCCCCCCCCCCCCCCCCCCC (centres unmarked) [GM3C22, reference compound] |  |  |  |  |  |  |  |  | significantly enhanced | significantly enhanced | significantly enhanced |  |  | selectively increased | selectively increased |  | no increase
8 | α-Neu5Ac-(2-3)β-Gal-(1-4)-β-Glc-(1-1)-ceramide [GM3, reference compound] |  | significantly increased |  |  |  |  |  |  |  |  |  |  |  |  |  |  | 
9 | CCCCCCCCCCCCCC=CC(O)C(COC1OC(CO)C(OC2OC(CO)C(O)C(OC3(C(=O)O)CC(O)C(NC(C)=O)C(C(O)C(O)CO)O3)C2O)C(O)C1O)NC(=O)CCCCCCCCCCCCCCCCCCCCCCC (centres unmarked) [GM3C24, reference compound] |  |  |  |  |  |  |  |  | significantly enhanced | significantly enhanced | significantly enhanced |  |  | selectively increased | selectively increased |  | no increase
10 | CCCCCCCCCCCCCC=CC(O)C(COC1OC(CO)C(OC2OC(CO)C(O)C(OC3(C(=O)O)CC(O)C(NC(C)=O)C(C(O)C(O)CO)O3)C2O)C(O)C1O)NC(=O)CCCCCCCCCCCCCCCCC (centres unmarked) [GM3C18] |  |  |  |  |  |  |  |  | inhibiting | inhibiting | inhibiting | strongly inhibited | strongly inhibited | inhibitory action | inhibitory action | inhibitory action was also observed | 
